From patent publication US20140303164A1, “THERAPEUTIC COMPOUNDS” (Gilead Sciences, Inc., priority 2013, published 2014)

Key:
uninfected MT-4 cells = test: Test B: Cytotoxicity Assay; format: cell-based; settings: same protocol as Test A, 5 days
Procedure, shortened: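 Uninfected MT-4 cells (2000 per well) incubated with diluted compound at 37° C. for 5 days, following the antiviral protocol without HIV-IIIb.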

HIV-IIIb = test: Test A: Antiviral Assay in MT4 Cells; format: cell-based, HIV-1; settings: from dose response curve, MT-4 cells, HIV-IIIb, 5 days, values above 100 normalized to 100; for % inhibition at 0.2 μM: percent inhibition of virus-induced cell killing at 0.2 μM drug concentration; for % inhibition at 2 μM: percent inhibition of virus-induced cell killing at 2 μM drug concentration
Procedure: Test A: Antiviral Assay in MT4 Cells
MT-4 cells were next mixed with HIV-IIIb at an m.o.i of 0.003 for 1 hour, after which time 35 μL of virus/cell mixture (2000 cells) was immediately added to each well containing 40 μL of diluted compound. The plates were then incubated at 37° C. for 5 days. […] Cell lysis was carried out by incubating at room temperature for 10 min and then chemiluminescence was read.

Row | SMILES | CC50 (uninfected MT-4 cells) [µM] | % inhibition at 0.2 μM (HIV-IIIb) [%] | % inhibition at 2 μM (HIV-IIIb) [%]
1 | CC(C)(C)C#Cc1ccc(-c2cccn3c(NS(C)(=O)=O)nnc23)c([C@H](Cc2cc(F)cc(F)c2)NC(=O)Cn2nc(C(F)F)c3c2C(F)(F)[C@@H]2C[C@H]32)n1 [Compound 134, 2-((3bS,4aR)-3-(difluoromethyl)-5,5-difluoro-3b,4,4a,5-tetrahydro-1H-cyclopropa[3,4]cyclopenta[1,2-c]pyrazol-1-yl)-N—((S)-2-(3,5-difluorophenyl)-1-(6-(3,3-dimethylbut-1-yn-1-yl)-3-(3-(methylsulfonamido)-[1,2,4]triazolo[4,3-a]pyridin-8-yl)pyridin-2-yl)ethyl)acetamide] | 28 | 82 | 83
2 | Cn1nc(NS(C)(=O)=O)c2cccc(-c3ccc(C#C[C@@H](N)CO)nc3[C@H](Cc3cc(F)cc(F)c3)NC(=O)Cn3nc(C(F)(F)F)c4c3C(F)(F)[C@@H]3C[C@H]43)c21 [Compound 59B, N—((S)-1-(6-((R)-3-amino-4-hydroxybut-1-yn-1-yl)-3-(1-methyl-3-(methylsulfonamido)-1H-indazol-7-yl)pyridin-2-yl)-2-(3,5-difluorophenyl)ethyl)-2-((3b-S,4aR)-5,5-difluoro-3-(trifluoromethyl)-3b,4,4a,5-tetrahydro-1H-cyclopropa[3,4]cyclopenta[1,2-c]pyrazol-1-yl)acetamide] | 22.4 | 94 | 94
3 | Cc1ccc(-c2ccc(C#CC(C)(C)O)nc2[C@H](Cc2cc(F)cc(F)c2)NC(=O)Cn2nc(C(F)F)c3c2C(F)(F)[C@@H]2C[C@H]32)c2c1c(NS(N)(=O)=O)nn2C [Compound 71, 2-((3b-S,4aR)-3-(difluoromethyl)-5,5-difluoro-3b,4,4a,5-tetrahydro-1H-cyclopropa[3,4]cyclopenta[1,2-c]pyrazol-1-yl)-N—((S)-2-(3,5-difluorophenyl)-1-(3-(1,4-dimethyl-3-(sulfamoylamino)-1H-indazol-7-yl)-6-(3-hydroxy-3-methylbut-1-yn-1-yl)pyridin-2-yl)ethyl)acetamide] | 9.51 | 87 | 87
4 | CCC(O)C#Cc1ccc(-c2ccc(Cl)c3c(NS(C)(=O)=O)nn(C)c23)c([C@H](Cc2cc(F)cc(F)c2)NC(=O)Cn2nc(C(F)(F)F)c3c2C(F)(F)[C@@H]2C[C@H]32)n1 (stereo partly drawn) [Compound 145, N-((1S)-1-(3-(4-chloro-1-methyl-3-(methylsulfonamido)-1H-indazol-7-yl)-6-(3-hydroxypent-1-yn-1-yl)pyridin-2-yl)-2-(3,5-difluorophenyl)ethyl)-2-((3b-S,4aR)-5,5-difluoro-3-(trifluoromethyl)-3b,4,4a,5-tetrahydro-1H-cyclopropa[3,4]cyclopenta[1,2-c]pyrazol-1-yl)acetamide] | 8.69 | 99 | 99
5 | Cn1cc(-c2ccc(-c3ccc(Cl)c4c(NS(C)(=O)=O)nn(C)c34)c([C@H](Cc3cc(F)cc(F)c3)NC(=O)Cn3nc(C(F)(F)F)c4c3C(F)(F)[C@@H]3C[C@H]43)n2)cn1 [Compound 173, N—((S)-1-(3-(4-chloro-1-methyl-3-(methylsulfonamido)-1H-indazol-7-yl)-6-(1-methyl-1H-pyrazol-4-yl)pyridin-2-yl)-2-(3,5-difluorophenyl)ethyl)-2-((3b-S,4aR)-5,5-difluoro-3-(trifluoromethyl)-3b,4,4a,5-tetrahydro-1H-cyclopropa[3,4]cyclopenta[1,2-c]pyrazol-1-yl)acetamide] | > 43.7 | 92 | 92
